Experimental data: PubChem BioAssay AID248 (DTP/NCI, 2004)
Where “and” joins values, the source holds several entries; their conditions need not be identical. Equal entries are not always repeated. Toxic doses and inconclusive results are not listed. Rule as the data show it: active = T/C of 150% or more; inactive = T/C below 125%.

System: L1210 leukemia ip in BDF1 mice, survival T/C
Assay: NCI In Vivo Anticancer Drug Screen. Data for tumor model L1210 Leukemia (intraperitoneal) in B6D2F1 (BDF1) mice
Settings: higher = longer survival
Method in brief: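 Value reflects the ratio of survival in compound-treated mice to survival in vehicle-treated controls, with both groups carrying the same transplanted tumor.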

[1] = endpoint: mean survival time, dose: 25.0 mg/kg/injection, schedule: Q01DX009 (ip), vehicle: Klucel (hydroxypropylcellulose) (HPC)
[2] = endpoint: mean survival time, dose: 50.0 mg/kg/injection, schedule: Q01DX009 (ip), vehicle: Klucel (hydroxypropylcellulose) (HPC)
[3] = endpoint: mean survival time, dose: 100.0 mg/kg/injection, schedule: Q01DX009 (ip), vehicle: Klucel (hydroxypropylcellulose) (HPC)
[4] = endpoint: mean survival time, dose: 100.0 mg/kg/injection, schedule: Q04DX003 (ip), vehicle: Klucel (hydroxypropylcellulose) (HPC)
[5] = endpoint: mean survival time, dose: 200.0 mg/kg/injection, schedule: Q01DX009 (ip), vehicle: Klucel (hydroxypropylcellulose) (HPC)
[6] = endpoint: mean survival time, dose: 200.0 mg/kg/injection, schedule: Q04DX003 (ip), vehicle: Klucel (hydroxypropylcellulose) (HPC)
[7] = endpoint: mean survival time, dose: 400.0 mg/kg/injection, schedule: Q04DX003 (ip), vehicle: Klucel (hydroxypropylcellulose) (HPC)
[8] = endpoint: mean survival time, dose: 100.0 mg/kg/injection, schedule: Q01DX001 (ip), vehicle: saline
[9] = endpoint: mean survival time, dose: 400.0 mg/kg/injection, schedule: Q01DX001 (ip), vehicle: saline
[10] = endpoint: mean survival time, dose: 100.0 mg/kg/injection, schedule: Q01DX001 (ip), vehicle: Klucel (hydroxypropylcellulose) (HPC)
[11] = endpoint: mean survival time, dose: 200.0 mg/kg/injection, schedule: Q01DX001 (ip), vehicle: Klucel (hydroxypropylcellulose) (HPC)
[12] = endpoint: mean survival time, dose: 400.0 mg/kg/injection, schedule: Q01DX001 (ip), vehicle: Klucel (hydroxypropylcellulose) (HPC)

Measured: T/C

C[C@H]1C(=O)O[C@@H]2CCN3CC=C(COC(=O)[C@](C)(O)[C@@]1(C)O)[C@H]23
inactive: endpoint: mean survival time, dose: 3.13 mg/kg/injection, schedule: Q01DX010 (ip), vehicle: saline 93 % of control and 94 % of control | endpoint: mean survival time, dose: 6.25 mg/kg/injection, schedule: Q01DX009 (ip), vehicle: saline 95 % of control and 104 % of control | endpoint: mean survival time, dose: 6.25 mg/kg/injection, schedule: Q01DX010 (ip), vehicle: saline 96 % of control and 87 % of control | endpoint: mean survival time, dose: 12.5 mg/kg/injection, schedule: Q01DX009 (ip), vehicle: saline 92 % of control and 104 % of control | endpoint: mean survival time, dose: 12.5 mg/kg/injection, schedule: Q01DX010 (ip), vehicle: saline 92 % of control and 93 % of control | endpoint: mean survival time, dose: 17.6 mg/kg/injection, schedule: Q01DX Z (ip), vehicle: methylcellulose (MC) 98 % of control | endpoint: mean survival time, dose: 25.0 mg/kg/injection, schedule: Q01DX009 (ip), vehicle: saline 103 % of control and 104 % of control | endpoint: mean survival time, dose: 25.0 mg/kg/injection, schedule: Q01DX010 (ip), vehicle: saline 92 % of control and 94 % of control | endpoint: mean survival time, dose: 26.8 mg/kg/injection, schedule: Q01DX Z (ip), vehicle: methylcellulose (MC) 101 % of control | endpoint: mean survival time, dose: 40.0 mg/kg/injection, schedule: Q01DX Z (ip), vehicle: methylcellulose (MC) 101 % of control | endpoint: mean survival time, dose: 50.0 mg/kg/injection, schedule: Q01DX009 (ip), vehicle: saline 105 % of control and 121 % of control | endpoint: mean survival time, dose: 60.0 mg/kg/injection, schedule: Q01DX Z (ip), vehicle: methylcellulose (MC) 95 % of control | endpoint: mean survival time, dose: 90.0 mg/kg/injection, schedule: Q01DX Z (ip), vehicle: methylcellulose (MC) 106 % of control | endpoint: mean survival time, dose: 135.0 mg/kg/injection, schedule: Q01DX Z (ip), vehicle: methylcellulose (MC) 111 % of control and 113 % of control | endpoint: mean survival time, dose: 193.0 mg/kg/injection, schedule: Q01DX Z (ip), vehicle: methylcellulose (MC) 108 % of control | endpoint: median survival time, dose: 6.25 mg/kg/injection, schedule: Q01DX009 (ip), vehicle: saline 95 % of control and 100 % of control | endpoint: median survival time, dose: 12.5 mg/kg/injection, schedule: Q01DX009 (ip), vehicle: saline 100 % of control | endpoint: median survival time, dose: 25.0 mg/kg/injection, schedule: Q01DX009 (ip), vehicle: saline 100 % of control | endpoint: median survival time, dose: 50.0 mg/kg/injection, schedule: Q01DX009 (ip), vehicle: saline 100 % of control and 110 % of control

O=C/C(Br)=C\c1ccccc1
inactive: [1] 95 % of control | endpoint: mean survival time, dose: 25.0 mg/kg/injection, schedule: Q04DX003 (ip), vehicle: Klucel (hydroxypropylcellulose) (HPC) 100 % of control | [2] 90 % of control | endpoint: mean survival time, dose: 50.0 mg/kg/injection, schedule: Q04DX003 (ip), vehicle: Klucel (hydroxypropylcellulose) (HPC) 100 % of control | [3] 105 % of control | [4] 93 % of control and 105 % of control

CCC(C)C(C=NCC(CCN(CC)CC)(c1cccc2ccccc12)C(C)CC)(CCN(CC)CC)c1cccc2ccccc12 (stereo not drawn)
inactive: endpoint: mean survival time, dose: 100.0 mg/kg/injection, schedule: Q04DX002 (ip), vehicle: saline with Tween-80 94 % of control | endpoint: mean survival time, dose: 200.0 mg/kg/injection, schedule: Q04DX002 (ip), vehicle: saline with Tween-80 97 % of control | endpoint: mean survival time, dose: 400.0 mg/kg/injection, schedule: Q04DX002 (ip), vehicle: saline with Tween-80 87 % of control

BrCCCC1CCCCC1
inactive: [3] 104 % of control | [4] 100 % of control | [5] 97 % of control | [6] 104 % of control | endpoint: mean survival time, dose: 400.0 mg/kg/injection, schedule: Q01DX009 (ip), vehicle: Klucel (hydroxypropylcellulose) (HPC) 92 % of control | [7] 105 % of control

O=C1CN=C(c2ccccc2)c2cc(Cl)ccc2N1
inactive: [1] 92 % of control | [2] 94 % of control | [3] 89 % of control | endpoint: mean survival time, dose: 100.0 mg/kg/injection, schedule: Q04DX002 (ip), vehicle: Klucel (hydroxypropylcellulose) (HPC) 106 % of control | [5] 98 % of control | endpoint: mean survival time, dose: 200.0 mg/kg/injection, schedule: Q04DX002 (ip), vehicle: Klucel (hydroxypropylcellulose) (HPC) 93 % of control | endpoint: mean survival time, dose: 400.0 mg/kg/injection, schedule: Q04DX002 (ip), vehicle: Klucel (hydroxypropylcellulose) (HPC) 89 % of control

O=C(O)CNC(=O)C(CSCc1ccccc1)NC(=O)OCc1ccccc1 (stereo not drawn)
inactive: [4] 97 % of control | [7] 86 % of control

C#CCOS(C)(=O)=O
inactive: endpoint: mean survival time, dose: 10.0 mg/kg/injection, schedule: Q01DX009 (ip), vehicle: saline 108 % of control | endpoint: mean survival time, dose: 10.0 mg/kg/injection, schedule: Q04DX002 (ip), vehicle: saline 107 % of control | endpoint: mean survival time, dose: 20.0 mg/kg/injection, schedule: Q01DX009 (ip), vehicle: saline 124 % of control | endpoint: mean survival time, dose: 20.0 mg/kg/injection, schedule: Q04DX002 (ip), vehicle: saline 103 % of control | endpoint: mean survival time, dose: 40.0 mg/kg/injection, schedule: Q04DX002 (ip), vehicle: saline 103 % of control

CCOC1OC(CO)C(O)C(O)C1O (stereo not drawn)
inactive: [8] 102 % of control | endpoint: mean survival time, dose: 200.0 mg/kg/injection, schedule: Q01DX001 (ip), vehicle: saline 98 % of control | [9] 109 % of control

CCS(=O)(=O)CS(=O)(=O)c1ccc(C)cc1
inactive: [10] 103 % of control | [11] 103 % of control | [12] 103 % of control

CC1CN1C1=C(Br)C(=O)C(N2CC2C)=C(Br)C1=O (stereo not drawn)
inactive: endpoint: mean survival time, dose: 1.56 mg/kg/injection, schedule: Q01DX009 (ip), vehicle: Klucel (hydroxypropylcellulose) (HPC) 95 % of control | endpoint: mean survival time, dose: 1.56 mg/kg/injection, schedule: Q04DX003 (ip), vehicle: saline with Tween-80 98 % of control | endpoint: mean survival time, dose: 3.12 mg/kg/injection, schedule: Q01DX009 (ip), vehicle: Klucel (hydroxypropylcellulose) (HPC) 98 % of control | endpoint: mean survival time, dose: 3.12 mg/kg/injection, schedule: Q04DX003 (ip), vehicle: saline with Tween-80 104 % of control | endpoint: mean survival time, dose: 6.25 mg/kg/injection, schedule: Q01DX009 (ip), vehicle: Klucel (hydroxypropylcellulose) (HPC) 95 % of control | endpoint: mean survival time, dose: 6.25 mg/kg/injection, schedule: Q04DX003 (ip), vehicle: saline with Tween-80 98 % of control | endpoint: mean survival time, dose: 12.5 mg/kg/injection, schedule: Q01DX009 (ip), vehicle: Klucel (hydroxypropylcellulose) (HPC) 90 % of control | endpoint: mean survival time, dose: 12.5 mg/kg/injection, schedule: Q04DX003 (ip), vehicle: saline with Tween-80 95 % of control | endpoint: mean survival time, dose: 25.0 mg/kg/injection, schedule: Q04DX003 (ip), vehicle: saline with Tween-80 98 % of control

Cc1ccc(C)c(NC(=O)NCc2ccco2)c1
inactive: endpoint: mean survival time, dose: 100.0 mg/kg/injection, schedule: Q01DX009 (ip), vehicle: saline with Tween-80 97 % of control | endpoint: mean survival time, dose: 200.0 mg/kg/injection, schedule: Q01DX009 (ip), vehicle: saline with Tween-80 89 % of control

CC(=O)OC(C)C(=O)Nc1ccccc1 (stereo not drawn)
inactive: [10] 93 % of control | [11] 89 % of control | [12] 96 % of control

O=S(=O)(CCl)OCCCCOS(=O)(=O)CCl
inactive: endpoint: mean survival time, dose: 31.5 mg/kg/injection, schedule: Q01DX009 (ip), vehicle: saline 108 % of control and 109 % of control | endpoint: mean survival time, dose: 31.5 mg/kg/injection, schedule: Q01DX015 (ip), vehicle: saline 112 % of control | endpoint: mean survival time, dose: 50.0 mg/kg/injection, schedule: Q01DX001 (ip), vehicle: saline 100 % of control | endpoint: mean survival time, dose: 54.0 mg/kg/injection, schedule: Q01DX009 (ip), vehicle: saline 120 % of control and 124 % of control | endpoint: mean survival time, dose: 90.0 mg/kg/injection, schedule: Q01DX009 (ip), vehicle: saline 124 % of control | endpoint: mean survival time, dose: 90.0 mg/kg/injection, schedule: Q01DX015 (ip), vehicle: saline 124 % of control | [8] 111 % of control | endpoint: mean survival time, dose: 100.0 mg/kg/injection, schedule: Q01DX015 (ip), vehicle: saline 108 % of control | endpoint: mean survival time, dose: 133.0 mg/kg/injection, schedule: Q01DX001 (ip), vehicle: saline 104 % of control and 107 % of control and 121 % of control | endpoint: mean survival time, dose: 150.0 mg/kg/injection, schedule: Q01DX009 (ip), vehicle: saline 104 % of control | endpoint: mean survival time, dose: 200.0 mg/kg/injection, schedule: Q01DX015 (ip), vehicle: saline 97 % of control | endpoint: mean survival time, dose: 300.0 mg/kg/injection, schedule: Q01DX001 (ip), vehicle: saline 104 % of control and 121 % of control

CC(S(C)(=O)=O)(S(C)(=O)=O)S(C)(=O)=O
inactive: endpoint: mean survival time, dose: 75.0 mg/kg/injection, schedule: Q01DX001 (ip), vehicle: saline with Tween-80 96 % of control | endpoint: mean survival time, dose: 150.0 mg/kg/injection, schedule: Q01DX001 (ip), vehicle: saline with Tween-80 96 % of control | endpoint: mean survival time, dose: 300.0 mg/kg/injection, schedule: Q01DX001 (ip), vehicle: saline with Tween-80 107 % of control

O=C(N/N=C/c1ccc(Cl)c(Cl)c1)c1cccc2ccccc12
inactive: [8] 87 % of control | [9] 90 % of control

O=C1c2ccccc2-c2c(N=Cc3ccc([N+](=O)[O-])cc3)cccc21
inactive: [4] 102 % of control | [6] 89 % of control | [7] 96 % of control
